Data set [1] is described as follows: Apparent solubility of phosphatidylserine salts in ethanol (shake flask). The data set is classed as physicochemical. To be noted: 21 °C, organic solvent or mixture, thermodynamic from solid, 100% ethanol, room temperature, average±SD (N=3). How it is done: Apparent solubilities of phosphatidylserine salts in ethanol were determined by shake flask technique. Sodium and ammonium salts of phosphatidylserines in the powder form were obtained from Avanti Polar Lipids (Alabama, USA). Aliquots of phosphatidylserine salt powder were placed in 12×75 borosilicate glass tubes in triplicate. Three mL of 200 proof ethanol (catalog number E-7023, MilliporeSigma, USA) were added, the tubes were closed with polyethylene snap caps, agitated using vortex mixer for 10-15 s to obtain uniform suspensions, and placed in a horizontal position on a rocking platform at room temperature (20-22° C.) overnight. The ambient temperature at the end of incubation was 20.4-20.9° C. After 24 hours incubation, the suspensions were visually checked for the presence of a solid phase, allowed to settle under gravity, and the supernatant solutions were passed through a 0.2-μm PTFE syringe membrane filters. The first 0.5 ml of the filtrate was discarded, the next 1 ml was collected, and phosphatidylserine in the filtrates was quantified by phospholipid phosphate assay as follows: 20 μL aliquots of the filtrate were taken in triplicate into glass tubes, ethanol was evaporated in a stream of argon at 70° C., and the residue was digested in a mixture of 60 μL concentrated sulfuric acid and 20 μL 30% hydrogen peroxide for 10 min at 180-190° C. The digested samples were diluted with 1 mL of deionized water, 20 μL of 10% sodium sulfite was added to destroy any residual peroxide, and the samples were incubated on a boiling water bath for 15 min to hydrolyze any condensed phosphate species. The samples were chilled down to room temperature, mixed with 0.2 mL of 2% (w/w) ammonium molybdate solution and 20 μL of 10% (w/w) ascorbic acid solution, incubated on a boiling water bath for 10 min, and chilled down in a water bath at room temperature. The phosphate concentration was determined from the optical density of the formed blue phosphomolybdic acid at 825 nm using five-point standard curve from concurrently run standards prepared from the NIST-traceable commercial phosphate standard solution diluted to cover the range of 0-2 mM phosphate (coefficient of determination R^2>0.9999). Solubility of phosphatidylserine salts was expressed in molarity units of phosphatidylserine (Table 28). The data are average±SD (N=3).

Data set [2] deals with MutuDC1940 cells. Description: mCherry mRNA transfection efficiency of LNPs in murine dendritic cells (flow cytometry). Format: cell-based. The following applies: lipid in LNPs, even in the presence of DPPS targeting lipid. How it is done: • 1. MutuDC1940 cells (Applied Biological Materials, T0528) were grown according to supplier's instructions in T75 flasks. They were plated at 180,000 cells/well into 24-well plate one day prior to transfection. • 2. LNPs were added in triplicate to each well at the desired mRNA concentration (e.g. 1 μg/mL) in 1 mL media and after 24 h the cells were washed once with DPBS (VWR 02-0119-1000). • 3. 0.2 mL of DPBS (plus 5 mM EDTA, pH 7.4) was then added to facilitate detachment. • 4. The cells were placed at 37° C. for 3 min, until detached. • 5. 0.5 ml DPBS added to each well and the liquid transferred to a flow cytometry tube (Falcon 5 mL #352054). • 6. The tube was centrifuged at 1100 rpm for 3-5 min and the liquid poured off. • 7. 100 μL of Zombie Violet (Biolegend) (diluted 1:500 in PBS) was added to each tube. • 8. The tubes were gently tapped to resuspend cells and placed in the dark for 15 min at RT. • 9. […]
Cells suspensions were analyzed by an Attune NXT flow cytometer using the VL1 and YL2 for live/dead and mCherry fluorescence signals respectively. […]
The aim of this study was to explore the effect of different KC2 and KC3 ICLs on transfection efficiency in murine dendritic cells. […] Two other variants evaluated have monounsaturated alkyl chains with KC3-OA being 18 carbons in length and KC3C17(8:1) having 17 carbons. […]
A general note: Flow cytometry measures light scatter and fluorescence of single cells or particles in a stream.

Data set [3] can be described thus: In vivo metabolism of ionizable lipid after intramuscular injection. The text has this:
We have observed that in vivo metabolism of the KC3-OA lipids after intramuscular injection is slow. This is not unexpected because there are no ester linkages in the lipid tail that would allow for the release of the lipid head group and subsequent clearance from the body. We have identified multiple biodegradable ICLs that differ in the length of the lipid tail, the location and orientation of the ester linkage, and the inclusion of a double bond in the lipid tail.

Data set [4] relates to Mtb-specific CD4 and CD8 T cells. Description: Mtb antigen-specific splenic CD4 and CD8 T cell responses after mRNA-LNP vaccination of CB6F1 or B6C3F1 mice (peptide pool stimulation, intracellular cytokines). To be noted: 1 ug or 0.2 ug i.m., boost 5 weeks, 8 days later, lipid in DPPS-targeted LNP. Format: in vivo.

For `CCCCCCCCCCCCCCCCCC(=O)OC[C@H](COP(=O)(O)OC[C@H](N)C(=O)[O-])OC(=O)CCCCCCCCCCCCCCCCC.[Na+]` [DSPS sodium], the solubility (as a rule, how much of the substance goes into solution per volume) at 24 h in data set [1] came out at 0.111 ± 0.009 mM. Regarding `CCCCCCCCCCCCCCCCCC1(CCCCCCCCCCCCCCCCC)OC[C@H](CCCN(C)C)O1` [KC3-17, (S)-3-(2,2-diheptadecyl-1,3-dioxolan-4-yl)-N,N-dimethylpropan-1-amine], the “transfection activity in murine dendritic cells (in words)” value in data set [2] is “completely inactive”. In the case of `CCCCCCCCCCCCCCCC(=O)OC[C@H](COP(=O)(O)OC[C@H](N)C(=O)O)OC(=O)CCCCCCCCCCCCCCC.N` [DPPS ammonium], in data set [1], the solubility at 24 h was 0.865 ± 0.06 mM. On the same count and under the same terms, under `CCCCCCCCCCCCCCCC(=O)OC[C@H](COP(=O)(O)OC[C@H](N)C(=O)[O-])OC(=O)CCCCCCCCCCCCCCC.[Na+]` [DPPS sodium] stands 0.201 ± 0.004 mM. Turning to `CCCCCCCC/C=C\CCCCCCCCC1(CCCCCCCC/C=C\CCCCCCCC)OC[C@H](CCCN(C)C)O1` [KC3-OA, 3-((S)-2,2-di((Z)-octadec-9-en-1-yl)-1,3-dioxolan-4-yl)-N,N-dimethylpropan-1-amine], the “in vivo metabolism after intramuscular injection” value in data set [3] is on record as “slow”.

For the molecule `CC(C)CCCC(C)CCCC(C)CCOC(=O)CCCCCCCC1(CCCCCCCC(=O)OCCC(C)CCCC(C)CCCC(C)C)OCC(CCCN(C)C)O1` (stereo not shown) [KC3-X1-PH5], the “CD4 and CD8 T cell magnitude compared to KC3-OA” value in data set [4] is reported as “statistically performed better than KC3-OA”.

For the molecule `CCCCCCCCCCCCCCCCCC(=O)OC[C@H](COP(=O)(O)OC[C@H](N)C(=O)O)OC(=O)CCCCCCCCCCCCCCCCC.N` [DSPS ammonium], the solubility at 24 h in data set [1] was 0.034 ± 0.004 mM.

The values are drawn from patent publication US20250387462A1, “LIPID NANOPARTICLES FOR […] OF NUCLEIC ACIDS AND VACCINE FOR THE PREVENTION OF TU[…] OTHER MYCOBACTERIAL INFECTIONS” (priority 2024, published 2025).
